Assay results taken from patent US10463666B2, “Pharmaceutical composition comprising progestogens and/or estrogens and 5-methyl-(6S)-tetrahydrofolate” (MERCK & CIE, priority 2005, dated 2019).

What was measured:
[1] = cited from earlier work
[2] = compatibility investigation of binary mixtures with vitamin B12 by DSC; assay type: physicochemical; design: key: ++: good compatibility expected below the stated temperature; +: compatibility below the stated temperature; ++/−: indifferent compatibility, possibly good compatibility below the stated temperature; +/−−: indifferent compatibility, appears to be compatible below the stated temperature; −: (strong) interaction, incompatible; −−−: (strong) interaction, incompatible; conditions: binary mixture with vitamin B12, DSC, various gases and temperatures
Experimental: Both vitamin B12 and 5-methyl-(6S)-tetrahydrofolate are unstable in the presence of atmospheric oxygen and humidity. […] Measurements of the incompatibilities between the intended formulation ingredients were carried out by a thermoanalytical method (DSC, differential scanning calorimetry). This allows incompatibilities to be recognized through low enthalpies of fusion and melting temperatures. These are caused for example by a reduced proportion of crystalline substance and the increase in impurities. In the determination, binary mixtures of excipients or active ingredients in each case with vitamin B12 were investigated, and the compatibility was examined under the influence of various gases and temperatures. […]

Row | Compatibility [2] | Compound | reduction of incidence of neural tube defects ([1]; folic acid fortification of food products, Canada and Chile) | reduction of neural tube defects ([1]; intake at the right time around conception)
1 | – | Nc1nc2ncc(CNc3ccc(C(=O)N[C@@H](CCC(=O)O)C(=O)O)cc3)nc2c(=O)[nH]1 [folic acid] | more than 50% | 50-70%
2 | + | OC[C@H]1O[C@@H](O[C@H]2[C@H](O)[C@@H](O)C(O)O[C@@H]2CO)[C@H](O)[C@@H](O)[C@H]1O (some centres unmarked) [Lactose] | – | –
3 | + | C[C@]12CCC(=O)C=C1[C@@H]1C[C@@H]1[C@H]1[C@@H]3[C@@H]4C[C@@H]4[C@@]4(CCC(=O)O4)[C@@]3(C)CC[C@@H]12 [Drospirenone] | – | –

Row | Compound | Compatibility [2] | reduction of incidence of neural tube defects ([1]; folic acid fortification of food products, Canada and Chile) | reduction of neural tube defects ([1]; intake at the right time around conception)
4 | Magnesium stearate | ++/− | – | –
